The values below are quoted from earlier work in patent US20050090554A1, “Treatment of gastroparesis and nonulcer dyspepsia with GABAB agonists” (priority 2003, published 2005).

Structures are written as SMILES.

For data set [1] the following is noted: administered isomer.
The conditions of data set [2]: compared with the S-isomer.
For data set [3] the following is noted: with the exception of the upper small intestine (carrier-mediated transport).

Regarding `NC[C@H](CC(=O)O)c1ccc(Cl)cc1` [(R)-baclofen], the “arterial blood pressure and heart rate” value in data set [1] was “opposite effects”. In data set [2], the half-life result is given as “longer”, the metabolic clearance result is “lower” and the systemic exposure result is on record as “higher”.
Consider `NCC(CC(=O)O)c1ccc(Cl)cc1` (racemic) [baclofen, 4-amino-3-(p-chlorophenyl)-butyric acid], for which, in data set [3], the “permeability in the GI tract” value is “poor permeability”.
As to `NC[C@@H](CC(=O)O)c1ccc(Cl)cc1` [(S)-baclofen], in data set [1], the “arterial blood pressure and heart rate” value is reported as “decrease”.
